Source: PubChem BioAssay AID1963841 (Molecular Pharmacology Branch, DTP, NCI, 2024)

Test system: 439559-082-T-J2-PDC spheroid viability
Experiment: Anticancer human tumor 439559-082-T-J2-PDC patient-derived colon adenocarcinoma cell line growth inhibition [POLQ]
Conditions: spheroids with HUVEC and MSC; for IC50: curve of first compound; for viability, T/C: stronger effect = lower value
Method in brief: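 Patient-derived tumour cells were co-cultured with HUVEC and mesenchymal stem cells as multicellular spheroids at 37 °C. They were treated with POLQ inhibitors (novobiocin, ART-558, RP6685) alone or combined with other agents. Top concentrations were at or near clinical Cmax (otherwise 10 microM; SN-38 at 1 microM), decreasing in half-log steps.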
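Note: spheroids exposed to compounds for seven days before readout.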
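Throughout, for viability, T/C: 100% = DMSO vehicle control viability.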

Compound: CC(C)n1c(=O)n(C)c2cnc3cc(F)c(-c4ccc(OCCCN5CCCCC5)nc4)cc3c21 + COC1C(OC(N)=O)C(O)C(Oc2ccc3c(O)c(NC(=O)c4ccc(O)c(CC=C(C)C)c4)c(=O)oc3c2C)OC1(C)C
- IC50 (second compound 0.0316 µM): > 10 µM
- IC50 (second compound 0.1 µM): > 10 µM
- IC50 (second compound 0.316 µM): > 10 µM
- IC50 (second compound 1 µM): > 10 µM
- IC50 (second compound 3.16 µM): > 10 µM
- IC50 (second compound 10 µM): > 10 µM
- viability, T/C (second compound 0.0316 µM, first compound 0.0316 µM): 97.8%
- viability, T/C (second compound 0.0316 µM, first compound 0.1 µM): 102%
- viability, T/C (second compound 0.0316 µM, first compound 0.316 µM): 109%
- viability, T/C (second compound 0.0316 µM, first compound 1 µM): 116%
- viability, T/C (second compound 0.0316 µM, first compound 3.16 µM): 113%
- viability, T/C (second compound 0.0316 µM, first compound 10 µM): 102%
- viability, T/C (second compound 0.1 µM, first compound 0.0316 µM): 111%
- viability, T/C (second compound 0.1 µM, first compound 0.1 µM): 109%
- viability, T/C (second compound 0.1 µM, first compound 0.316 µM): 110%
- viability, T/C (second compound 0.1 µM, first compound 1 µM): 119%
- viability, T/C (second compound 0.1 µM, first compound 3.16 µM): 102%
- viability, T/C (second compound 0.1 µM, first compound 10 µM): 99.4%
- viability, T/C (second compound 0.316 µM, first compound 0.0316 µM): 119%
- viability, T/C (second compound 0.316 µM, first compound 0.1 µM): 109%
- viability, T/C (second compound 0.316 µM, first compound 0.316 µM): 109%
- viability, T/C (second compound 0.316 µM, first compound 1 µM): 112%
- viability, T/C (second compound 0.316 µM, first compound 3.16 µM): 107%
- viability, T/C (second compound 0.316 µM, first compound 10 µM): 91.2%
- viability, T/C (second compound 1 µM, first compound 0.0316 µM): 110%
- viability, T/C (second compound 1 µM, first compound 0.1 µM): 111%
- viability, T/C (second compound 1 µM, first compound 0.316 µM): 111%
- viability, T/C (second compound 1 µM, first compound 1 µM): 109%
- viability, T/C (second compound 1 µM, first compound 3.16 µM): 110%
- viability, T/C (second compound 1 µM, first compound 10 µM): 95%
- viability, T/C (second compound 3.16 µM, first compound 0.0316 µM): 105%
- viability, T/C (second compound 3.16 µM, first compound 0.1 µM): 107%
- viability, T/C (second compound 3.16 µM, first compound 0.316 µM): 106%
- viability, T/C (second compound 3.16 µM, first compound 1 µM): 112%
- viability, T/C (second compound 3.16 µM, first compound 3.16 µM): 111%
- viability, T/C (second compound 3.16 µM, first compound 10 µM): 97.6%
- viability, T/C (second compound 10 µM, first compound 0.0316 µM): 103%
- viability, T/C (second compound 10 µM, first compound 0.1 µM): 96.9%
- viability, T/C (second compound 10 µM, first compound 0.316 µM): 106%
- viability, T/C (second compound 10 µM, first compound 1 µM): 106%
- viability, T/C (second compound 10 µM, first compound 3.16 µM): 113%
- viability, T/C (second compound 10 µM, first compound 10 µM): 102%
